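These data come from cells grown in 96-well plates and exposed to compound for 48 hours at five concentrations. GI50: concentration for 50% inhibition of growth.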 Calls of active or inactive are those of the source. No stated cut-off is given here; in the data, active = GI50 up to about 1.1 µM and inactive = higher.
Tests used:
Test in all cases: NCI-60 cell line screen, 48 h
786-0 = tested on: 786-0
A498 = tested on: A498
ACHN = tested on: ACHN
BT-549 = tested on: BT-549
CAKI-1 = tested on: CAKI-1
CCRF-CEM = tested on: CCRF-CEM
COLO 205 = tested on: COLO 205
DU-145 = tested on: DU-145
EKVX = tested on: EKVX
HCT-116 = tested on: HCT-116
HCT-15 = tested on: HCT-15
HL-60 = tested on: HL-60
HOP-62 = tested on: HOP-62
HT-29 = tested on: HT-29
Hs-578T = tested on: Hs-578T
IGROV-1 = tested on: IGROV-1
K562 = tested on: K562
KM12 = tested on: KM12
LOX IMVI = tested on: LOX IMVI
M14 = tested on: M14
MCF7 = tested on: MCF7
MDA-MB-231 = tested on: MDA-MB-231
MDA-MB-435 = tested on: MDA-MB-435
MDA-N = tested on: MDA-N
MOLT-4 = tested on: MOLT-4
Malme-3M = tested on: Malme-3M
NCI-H226 = tested on: NCI-H226
NCI-H23 = tested on: NCI-H23
NCI-H460 = tested on: NCI-H460
NCI/ADR-RES = tested on: NCI/ADR-RES
OVCAR-3 = tested on: OVCAR-3
OVCAR-5 = tested on: OVCAR-5
OVCAR-8 = tested on: OVCAR-8
PC-3 = tested on: PC-3
RPMI-8226 = tested on: RPMI-8226
RXF 393 = tested on: RXF 393
SF-268 = tested on: SF-268
SF-295 = tested on: SF-295
SF-539 = tested on: SF-539
SK-MEL-28 = tested on: SK-MEL-28
SK-MEL-2 = tested on: SK-MEL-2
SK-MEL-5 = tested on: SK-MEL-5
SK-OV-3 = tested on: SK-OV-3
SN12C = tested on: SN12C
SNB-19 = tested on: SNB-19
SNB-75 = tested on: SNB-75
SR = tested on: SR
SW-620 = tested on: SW-620
TK-10 = tested on: TK-10
U-251 = tested on: U-251
UACC-257 = tested on: UACC-257
UACC-62 = tested on: UACC-62
A549 = tested on: A549
HCC 2998 = tested on: HCC 2998
HOP-92 = tested on: HOP-92
NCI-H522 = tested on: NCI-H522
OVCAR-4 = tested on: OVCAR-4
T47D = tested on: T47D
UO-31 = tested on: UO-31

Measured: GI50

Cn1c(=O)oc2cc(C(=S)N3CCCCC3)ccc21
inactive: 786-0 > 100 µM | A498 > 100 µM | ACHN > 100 µM | BT-549 > 100 µM | CAKI-1 > 100 µM | CCRF-CEM 61.8 µM | COLO 205 > 100 µM | DU-145 > 100 µM | EKVX > 100 µM | HCT-116 > 100 µM | HL-60 > 100 µM | HOP-62 > 100 µM | HT-29 > 100 µM | Hs-578T > 100 µM | IGROV-1 > 100 µM | K562 > 100 µM | KM12 > 100 µM | LOX IMVI > 100 µM | M14 > 100 µM | MCF7 > 100 µM | MDA-MB-231 > 100 µM | MDA-MB-435 > 100 µM | MDA-N > 100 µM | MOLT-4 > 100 µM | Malme-3M > 100 µM | NCI-H226 > 100 µM | NCI-H23 > 100 µM | NCI-H460 > 100 µM | NCI/ADR-RES > 100 µM | OVCAR-3 > 100 µM | OVCAR-5 > 100 µM | OVCAR-8 > 100 µM | PC-3 > 100 µM | RPMI-8226 > 100 µM | RXF 393 > 100 µM | SF-268 > 100 µM | SF-295 > 100 µM | SF-539 > 100 µM | SK-MEL-28 > 100 µM | SK-MEL-2 > 100 µM | SK-MEL-5 > 100 µM | SK-OV-3 > 100 µM | SN12C > 100 µM | SNB-19 > 100 µM | SNB-75 > 100 µM | SR 68.4 µM | SW-620 > 100 µM | TK-10 > 100 µM | U-251 > 100 µM | UACC-257 > 100 µM | UACC-62 > 100 µM
> 100 µM: HCT-15

COC(=O)[C@]1(c2cc3ccccc3[nH]2)CC2CN(CC(=O)N(C)OC)C1CC2(OC)OC (some centres not stated)
inactive: 786-0 22.2 µM | A498 39.1 µM | A549 47.1 µM | ACHN 35.1 µM | BT-549 23.3 µM | CAKI-1 20.7 µM | CCRF-CEM 7.23 µM | COLO 205 83.6 µM | DU-145 43.5 µM | EKVX 56.6 µM | HCC 2998 > 100 µM | HCT-116 26.9 µM | HL-60 19.4 µM | HOP-62 69.3 µM | HOP-92 87.5 µM | HT-29 35.2 µM | IGROV-1 48.3 µM | K562 24.9 µM | KM12 31.6 µM | LOX IMVI 37.7 µM | M14 35.9 µM | MCF7 32.8 µM | MDA-MB-231 31.9 µM | MDA-MB-435 27.5 µM | MDA-N 33.4 µM | Malme-3M 24.3 µM | NCI-H226 34.4 µM | NCI-H23 36 µM | NCI-H460 55.3 µM | NCI-H522 15.9 µM | NCI/ADR-RES 41.2 µM | OVCAR-3 50.6 µM | OVCAR-4 57.1 µM | OVCAR-5 52.2 µM | OVCAR-8 39.3 µM | PC-3 24.2 µM | RPMI-8226 14.7 µM | RXF 393 33.5 µM | SF-268 67.6 µM | SF-295 > 100 µM | SF-539 44.4 µM | SK-MEL-28 > 100 µM | SK-MEL-2 39 µM | SK-MEL-5 40.6 µM | SK-OV-3 > 100 µM | SN12C 41.2 µM | SNB-19 > 100 µM | SNB-75 63.8 µM | SW-620 36.4 µM | T47D 22 µM | TK-10 > 100 µM | U-251 16.1 µM | UACC-257 71.3 µM | UACC-62 67.8 µM | UO-31 40.2 µM
28.2 µM: HCT-15

Cc1nn(C(=O)Cc2ccccc2)c2c1C(c1ccccc1O)SC(=N)N2 (configuration not stated)
inactive: 786-0 > 100 µM | A498 > 100 µM | A549 > 100 µM | ACHN > 100 µM | BT-549 > 100 µM | CAKI-1 > 100 µM | CCRF-CEM > 100 µM | COLO 205 > 100 µM | DU-145 > 100 µM | EKVX > 100 µM | HCC 2998 > 100 µM | HCT-116 > 100 µM | HL-60 > 100 µM | HOP-62 > 100 µM | HT-29 > 100 µM | Hs-578T > 100 µM | IGROV-1 > 100 µM | K562 > 100 µM | KM12 > 100 µM | LOX IMVI > 100 µM | M14 > 100 µM | MCF7 > 100 µM | MDA-MB-231 > 100 µM | MDA-MB-435 > 100 µM | MOLT-4 > 100 µM | Malme-3M > 100 µM | NCI-H226 > 100 µM | NCI-H23 > 100 µM | NCI-H460 > 100 µM | NCI-H522 > 100 µM | OVCAR-8 > 100 µM | PC-3 > 100 µM | RPMI-8226 > 100 µM | SF-268 > 100 µM | SF-295 > 100 µM | SF-539 > 100 µM | SK-MEL-28 > 100 µM | SK-MEL-5 > 100 µM | SK-OV-3 > 100 µM | SN12C > 100 µM | SNB-19 > 100 µM | SNB-75 > 100 µM | SR > 100 µM | SW-620 > 100 µM | T47D > 100 µM | TK-10 > 100 µM | UACC-257 > 100 µM | UACC-62 > 100 µM | UO-31 > 100 µM
> 100 µM: HCT-15

Cn1c(=O)c(-c2ccccc2)c(O)c2ccccc21
active: SNB-75 0.92 µM
inactive: 786-0 > 100 µM | A498 > 100 µM | A549 > 100 µM | ACHN > 100 µM | BT-549 > 100 µM | CAKI-1 > 100 µM | CCRF-CEM > 100 µM | COLO 205 > 100 µM | DU-145 > 100 µM | EKVX > 100 µM | HCC 2998 > 100 µM | HCT-116 > 100 µM | HL-60 > 100 µM | HOP-62 > 100 µM | HOP-92 > 100 µM | HT-29 > 100 µM | Hs-578T 66.4 µM | IGROV-1 > 100 µM | K562 > 100 µM | KM12 > 100 µM | LOX IMVI > 100 µM | MCF7 > 100 µM | MDA-MB-231 > 100 µM | MDA-MB-435 > 100 µM | MDA-N > 100 µM | MOLT-4 > 100 µM | Malme-3M > 100 µM | NCI-H226 > 100 µM | NCI-H23 > 100 µM | NCI-H460 > 100 µM | NCI-H522 > 100 µM | NCI/ADR-RES > 100 µM | OVCAR-3 > 100 µM | OVCAR-4 > 100 µM | OVCAR-5 > 100 µM | OVCAR-8 > 100 µM | PC-3 > 100 µM | RPMI-8226 > 100 µM | RXF 393 > 100 µM | SF-268 > 100 µM | SF-295 > 100 µM | SF-539 > 100 µM | SK-MEL-28 > 100 µM | SK-MEL-5 > 100 µM | SN12C > 100 µM | SNB-19 > 100 µM | SR 42.5 µM | SW-620 > 100 µM | TK-10 > 100 µM | U-251 > 100 µM | UACC-257 > 100 µM | UO-31 > 100 µM
> 100 µM: HCT-15

From ChEMBL document CHEMBL1201862, “PubChem BioAssay data set” (2004)
